The NIST ThermoML archive (doi:10.1021/je200721d)
Numbers after ± are expanded uncertainties.

Assay: xn = mol fraction of the nth substance listed
Conditions: Liquid, Vibrating tube method

CCCCCCCC [octane] + CCCCCC
Conditions	mass density [kg/m3]
313.14 K, 18000 kPa, x2 = 0.1654	697.47 ± 0.39
313.14 K, 18000 kPa, x2 = 0.5749	683.06 ± 0.41
313.14 K, 18000 kPa, x2 = 0.7995	672.32 ± 0.42
313.14 K, 18000 kPa, x2 = 0.9308	665.28 ± 0.43
313.14 K, 19000 kPa, x2 = 0.1654	698.27 ± 0.4
313.14 K, 19000 kPa, x2 = 0.5749	683.89 ± 0.42
313.14 K, 19000 kPa, x2 = 0.7995	673.21 ± 0.43
313.14 K, 19000 kPa, x2 = 0.9308	666.2 ± 0.44
313.14 K, 20000 kPa, x2 = 0.1654	699.05 ± 0.41
313.14 K, 20000 kPa, x2 = 0.5749	684.72 ± 0.43
313.14 K, 20000 kPa, x2 = 0.7995	674.07 ± 0.44
313.14 K, 20000 kPa, x2 = 0.9308	667.1 ± 0.45
313.14 K, 21000 kPa, x2 = 0.1654	699.81 ± 0.42
313.14 K, 21000 kPa, x2 = 0.5749	685.52 ± 0.44
313.14 K, 21000 kPa, x2 = 0.7995	674.92 ± 0.45
313.14 K, 21000 kPa, x2 = 0.9308	667.97 ± 0.46
313.14 K, 22000 kPa, x2 = 0.1654	700.55 ± 0.43
313.14 K, 22000 kPa, x2 = 0.5749	686.32 ± 0.45
313.14 K, 22000 kPa, x2 = 0.7995	675.74 ± 0.46
313.14 K, 22000 kPa, x2 = 0.9308	668.8 ± 0.47
313.14 K, 23000 kPa, x2 = 0.1654	701.28 ± 0.44
313.14 K, 23000 kPa, x2 = 0.5749	687.1 ± 0.46
313.14 K, 23000 kPa, x2 = 0.7995	676.52 ± 0.47
313.14 K, 23000 kPa, x2 = 0.9308	669.6 ± 0.48
313.14 K, 24000 kPa, x2 = 0.1654	701.98 ± 0.44
313.14 K, 24000 kPa, x2 = 0.5749	687.85 ± 0.46
313.14 K, 24000 kPa, x2 = 0.7995	677.27 ± 0.48
313.14 K, 24000 kPa, x2 = 0.9308	670.36 ± 0.49
313.14 K, 25000 kPa, x2 = 0.1654	702.7 ± 0.45
313.14 K, 25000 kPa, x2 = 0.5749	688.59 ± 0.47
313.14 K, 25000 kPa, x2 = 0.7995	677.99 ± 0.49
313.14 K, 25000 kPa, x2 = 0.9308	671.1 ± 0.5
323.06 K, 1000 kPa, x2 = 0.5749	658.22 ± 0.27
323.06 K, 2000 kPa, x2 = 0.5749	659.25 ± 0.28
323.06 K, 3000 kPa, x2 = 0.5749	660.31 ± 0.28
323.06 K, 4000 kPa, x2 = 0.5749	661.34 ± 0.29
323.06 K, 5000 kPa, x2 = 0.5749	662.42 ± 0.3
323.06 K, 6000 kPa, x2 = 0.5749	663.46 ± 0.31
323.06 K, 7000 kPa, x2 = 0.5749	664.53 ± 0.32
323.06 K, 8000 kPa, x2 = 0.5749	665.61 ± 0.33
323.06 K, 9000 kPa, x2 = 0.5749	666.67 ± 0.33
323.06 K, 10000 kPa, x2 = 0.5749	667.73 ± 0.34
323.06 K, 11000 kPa, x2 = 0.5749	668.78 ± 0.35
323.06 K, 12000 kPa, x2 = 0.5749	669.81 ± 0.36
323.06 K, 13000 kPa, x2 = 0.5749	670.83 ± 0.37
323.06 K, 14000 kPa, x2 = 0.5749	671.84 ± 0.38
323.06 K, 15000 kPa, x2 = 0.5749	672.81 ± 0.39
323.06 K, 16000 kPa, x2 = 0.5749	673.78 ± 0.4
323.06 K, 17000 kPa, x2 = 0.5749	674.72 ± 0.41
323.06 K, 18000 kPa, x2 = 0.5749	675.63 ± 0.42
323.06 K, 19000 kPa, x2 = 0.5749	676.52 ± 0.43
323.06 K, 20000 kPa, x2 = 0.5749	677.38 ± 0.43
323.06 K, 21000 kPa, x2 = 0.5749	678.25 ± 0.44
323.06 K, 22000 kPa, x2 = 0.5749	679.1 ± 0.45
323.06 K, 23000 kPa, x2 = 0.5749	679.9 ± 0.46
323.06 K, 24000 kPa, x2 = 0.5749	680.71 ± 0.47
323.06 K, 25000 kPa, x2 = 0.5749	681.47 ± 0.48
323.07 K, 1000 kPa, x2 = 0.2199	672.17 ± 0.26
323.07 K, 2000 kPa, x2 = 0.2199	673.14 ± 0.27
323.07 K, 3000 kPa, x2 = 0.2199	674.14 ± 0.28
323.07 K, 4000 kPa, x2 = 0.2199	675.13 ± 0.28
323.07 K, 5000 kPa, x2 = 0.2199	676.14 ± 0.29
323.07 K, 6000 kPa, x2 = 0.2199	677.12 ± 0.3
323.07 K, 7000 kPa, x2 = 0.2199	678.12 ± 0.31
323.07 K, 8000 kPa, x2 = 0.2199	679.13 ± 0.32
323.07 K, 9000 kPa, x2 = 0.2199	680.12 ± 0.32
323.07 K, 10000 kPa, x2 = 0.2199	681.12 ± 0.33
323.07 K, 11000 kPa, x2 = 0.2199	682.09 ± 0.34
323.07 K, 12000 kPa, x2 = 0.2199	683.06 ± 0.35
323.07 K, 13000 kPa, x2 = 0.2199	684.02 ± 0.36
323.07 K, 14000 kPa, x2 = 0.2199	684.97 ± 0.37
323.07 K, 15000 kPa, x2 = 0.2199	685.89 ± 0.38
323.07 K, 16000 kPa, x2 = 0.2199	686.79 ± 0.38
323.07 K, 17000 kPa, x2 = 0.2199	687.68 ± 0.39
323.07 K, 18000 kPa, x2 = 0.2199	688.54 ± 0.4
323.07 K, 19000 kPa, x2 = 0.2199	689.38 ± 0.41
323.07 K, 20000 kPa, x2 = 0.2199	690.21 ± 0.42
323.07 K, 21000 kPa, x2 = 0.2199	691.03 ± 0.43
323.07 K, 22000 kPa, x2 = 0.2199	691.83 ± 0.44
323.07 K, 23000 kPa, x2 = 0.2199	692.58 ± 0.45
323.07 K, 24000 kPa, x2 = 0.2199	693.35 ± 0.45
323.07 K, 25000 kPa, x2 = 0.2199	694.1 ± 0.46
323.08 K, 1000 kPa, x2 = 0.1654	674.04 ± 0.26
323.08 K, 2000 kPa, x2 = 0.1654	675.02 ± 0.27
323.08 K, 3000 kPa, x2 = 0.1654	676 ± 0.28
323.08 K, 4000 kPa, x2 = 0.1654	676.97 ± 0.28
323.08 K, 5000 kPa, x2 = 0.1654	677.97 ± 0.29
323.08 K, 6000 kPa, x2 = 0.1654	678.97 ± 0.3
323.08 K, 7000 kPa, x2 = 0.1654	679.95 ± 0.31
323.08 K, 8000 kPa, x2 = 0.1654	680.93 ± 0.31
323.08 K, 9000 kPa, x2 = 0.1654	681.93 ± 0.32
323.08 K, 10000 kPa, x2 = 0.1654	682.9 ± 0.33
323.08 K, 11000 kPa, x2 = 0.1654	683.88 ± 0.34
323.08 K, 12000 kPa, x2 = 0.1654	684.84 ± 0.35
